{"source": "paper PMC8342458", "about": "“GluN2A and GluN2B NMDA receptors use distinct allosteric routes” (Nature Communications, 2021)", "key": {"[1]": {"target": "T1, wild-type (wt) GluN1/GluN2A receptors (Rattus norvegicus, UniProt P35439+Q00959)", "T1 construct": "For full-length multimeric membrane-embedded receptors studied in cellulo, as done in the present work; expressed in transfected cells; host or cells: Xenopus laevis oocytes (nuclear cDNA injection, pcDNA3 plasmids)", "T1 sequence (Q00959 23-1464, other chains not shown)": "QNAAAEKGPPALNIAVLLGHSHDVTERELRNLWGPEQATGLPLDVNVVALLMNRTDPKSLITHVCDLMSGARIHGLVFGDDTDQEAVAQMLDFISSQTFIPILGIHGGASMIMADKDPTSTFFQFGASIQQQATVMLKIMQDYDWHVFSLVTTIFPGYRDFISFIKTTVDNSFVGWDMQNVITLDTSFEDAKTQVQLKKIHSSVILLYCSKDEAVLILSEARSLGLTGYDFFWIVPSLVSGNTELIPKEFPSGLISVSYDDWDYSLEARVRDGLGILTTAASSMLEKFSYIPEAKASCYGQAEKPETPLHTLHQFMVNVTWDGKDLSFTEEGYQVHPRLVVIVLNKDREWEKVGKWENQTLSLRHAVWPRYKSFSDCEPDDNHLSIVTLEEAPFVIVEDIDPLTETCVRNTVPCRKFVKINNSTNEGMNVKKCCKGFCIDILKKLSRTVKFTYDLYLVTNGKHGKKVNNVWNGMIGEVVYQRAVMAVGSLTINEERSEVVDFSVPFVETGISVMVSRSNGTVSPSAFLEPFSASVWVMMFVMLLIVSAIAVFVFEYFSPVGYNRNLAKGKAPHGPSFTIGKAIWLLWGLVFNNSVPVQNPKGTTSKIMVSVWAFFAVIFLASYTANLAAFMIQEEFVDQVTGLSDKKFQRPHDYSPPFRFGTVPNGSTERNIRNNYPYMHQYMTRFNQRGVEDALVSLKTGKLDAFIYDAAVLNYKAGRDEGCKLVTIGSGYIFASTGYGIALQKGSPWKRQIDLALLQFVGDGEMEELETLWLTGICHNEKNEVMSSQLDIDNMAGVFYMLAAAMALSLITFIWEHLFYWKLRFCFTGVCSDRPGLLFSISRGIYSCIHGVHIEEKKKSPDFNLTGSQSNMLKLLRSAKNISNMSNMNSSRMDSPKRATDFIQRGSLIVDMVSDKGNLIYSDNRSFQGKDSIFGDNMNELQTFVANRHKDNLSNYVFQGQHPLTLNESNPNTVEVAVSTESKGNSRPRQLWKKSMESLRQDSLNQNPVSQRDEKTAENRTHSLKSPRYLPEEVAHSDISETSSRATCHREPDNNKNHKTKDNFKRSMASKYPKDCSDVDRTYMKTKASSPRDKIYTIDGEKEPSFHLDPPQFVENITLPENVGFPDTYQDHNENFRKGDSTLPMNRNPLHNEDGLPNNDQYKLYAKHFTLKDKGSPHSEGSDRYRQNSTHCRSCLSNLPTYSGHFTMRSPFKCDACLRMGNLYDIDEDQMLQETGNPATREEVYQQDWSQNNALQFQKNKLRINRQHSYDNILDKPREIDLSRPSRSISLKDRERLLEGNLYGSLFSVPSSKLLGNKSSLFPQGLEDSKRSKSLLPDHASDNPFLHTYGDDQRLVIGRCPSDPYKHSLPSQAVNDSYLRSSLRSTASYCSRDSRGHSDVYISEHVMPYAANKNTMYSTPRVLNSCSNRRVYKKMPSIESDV", "experiment": "TEVC recordings in Xenopus oocytes, allosteric modulator sensitivity", "assay_type": "cell-based", "conditions": "for Izn/Io 1 nM: 1 nM zinc; for Izn/Io 10 nM: 10 nM zinc; for Izn/Io 50 nM: 50 nM zinc; for Izn/Io 500 nM: 500 nM zinc; for Izn/Io 1000 nM: 1000 nM zinc", "experimental": "(§1) The pcDNA3-based expression plasmids for rat GluN1-1a (named GluN1 herein), rat GluN2A, and mouse GluN2B (also known as ε2) subunits, Pfu-based site-directed mutagenesis strategy, and sequencing procedure have been described previously[68],[69]. Incorporation of the unnatural amino acids (UAAs) AzF and BzF into NMDARs was performed using the genetic code expansion methodology as previously described[52],[53],[83]. The plasmid pSVB.Yam carrying the gene encoding the amber suppressor tRNA derived from B. stearothermophilus Tyr-tRNACUA, while the aminoacyl-tRNA synthetases (aaRS) construction for AzF and BzF derived from E. coli TyrRS[84],[85].\n(§2) Recombinant NMDARs were expressed in Xenopus laevis oocytes after nuclear injection of 36 nl of a mixture of cDNAs (at 10–30 ng/μl) encoding various GluN1 and GluN2 subunits (ratio 1:1). Oocytes were prepared, injected, incubated, and voltage-clamped as described previously. For UAA incorporation, oocytes were co-injected with 36 nl of a cDNA mixture encoding for of GluN1, GluN2, Yam, and aaRS as follows, unless otherwise indicated in the text: GluN1-K178amber (120 ng/μl), GluN2A (80 ng/µl) or GluN2B (120 ng/μl), Yam (10 ng/μl), AzF-RS (5 ng/μl). After injection, oocytes were incubated at 19 °C in a Barth solution containing (in mM) 88 NaCl, 1 KCl, 0.33 Ca(NO3)2, 0.41 CaCl2, 0.82 MgSO4, 2.4 NaHCO3, 10 HEPES (pH adjusted to 7.6 with NaOH) supplemented with gentamicin ([…]) and the NMDAR glutamate binding site competitive antagonist D-APV (50 μM). AzF and BzF were added to the incubation medium at final concentrations of 1 mM and 2 mM, respectively.\n(§3) For all experiments, except those on pH and spermine sensitivity, the standard external solution contained (in mM): 100 NaCl, 0.3 BaCl2, and 5 HEPES (pH adjusted to 7.3 with KOH). […] For the pH and spermine sensitivity experiments, an external solution enriched in HEPES was used to insure proper pH buffering. Unless otherwise mentioned, NMDAR-mediated currents were induced by simultaneously applications of saturating concentrations of glutamate and glycine (100 μM each). Glutamate and glycine dose-response curves (DRC) were performed in the presence of 100 µM glycine and 100 µM glutamate, respectively. Recordings were performed at a holding potential of −60 mV and at room temperature. Data were collected and analyzed using Clampex 10.5 and Clampfit 10.5 (Molecular Devices), respectively, and fitted using KaleidaGraph 4.0 (Synergy software).\n(§4) EC50 and nH were fitted as free parameters. […] For proton DRC, corrections for small shifts in the reference potential of bath electrodes and analysis of the data were performed as previously described. Spermine experiments were performed and analyzed as previously described. In brief, spermine sensitivity was assessed at pH 6.5 and at a holding potential of −30 mV to maximize the spermine induced potentiation. […] EC50, a and nH were set as free parameters. MK-801 is an NMDAR open channel blocker with slow reversibility and, consequently, the rate at which MK-801 inhibits NMDAR responses depends on the level of channel activity, that is, channel open probability (Po). Based on this principle, MK-801 is classically used to estimate the level of NMDAR channel activity in macroscopic whole-cell recordings[36],[47],[56],[86],[87]. Note, however, that MK- 801 inhibition kinetics can index relative, not absolute, Po. MK-801 solutions (10 nM for GluN2A-containing receptors and 50 nM for GluN2B-containing receptors) were prepared by dilution of a stock solution (50 mM) into the agonist containing solutions. MK-801 time constants of inhibition (τon) were obtained by fitting currents with a single-exponential component to a time window corresponding to 10–90% of maximum inhibition. On-rate (kon) constants were then calculated assuming a pseudo first-order reaction scheme: kon = 1 / ([MK-801]*τon)."}, "[2]": {"target": "T2, wild-type (wt) GluN1/GluN2B receptors (UniProt P35439+Q01097)", "T2 construct": "For full-length multimeric membrane-embedded receptors studied in cellulo, as done in the present work; expressed in transfected cells; host or cells: Xenopus laevis oocytes (nuclear cDNA injection, pcDNA3 plasmids)", "T2 sequence (Q01097 27-1482, other chains not shown)": "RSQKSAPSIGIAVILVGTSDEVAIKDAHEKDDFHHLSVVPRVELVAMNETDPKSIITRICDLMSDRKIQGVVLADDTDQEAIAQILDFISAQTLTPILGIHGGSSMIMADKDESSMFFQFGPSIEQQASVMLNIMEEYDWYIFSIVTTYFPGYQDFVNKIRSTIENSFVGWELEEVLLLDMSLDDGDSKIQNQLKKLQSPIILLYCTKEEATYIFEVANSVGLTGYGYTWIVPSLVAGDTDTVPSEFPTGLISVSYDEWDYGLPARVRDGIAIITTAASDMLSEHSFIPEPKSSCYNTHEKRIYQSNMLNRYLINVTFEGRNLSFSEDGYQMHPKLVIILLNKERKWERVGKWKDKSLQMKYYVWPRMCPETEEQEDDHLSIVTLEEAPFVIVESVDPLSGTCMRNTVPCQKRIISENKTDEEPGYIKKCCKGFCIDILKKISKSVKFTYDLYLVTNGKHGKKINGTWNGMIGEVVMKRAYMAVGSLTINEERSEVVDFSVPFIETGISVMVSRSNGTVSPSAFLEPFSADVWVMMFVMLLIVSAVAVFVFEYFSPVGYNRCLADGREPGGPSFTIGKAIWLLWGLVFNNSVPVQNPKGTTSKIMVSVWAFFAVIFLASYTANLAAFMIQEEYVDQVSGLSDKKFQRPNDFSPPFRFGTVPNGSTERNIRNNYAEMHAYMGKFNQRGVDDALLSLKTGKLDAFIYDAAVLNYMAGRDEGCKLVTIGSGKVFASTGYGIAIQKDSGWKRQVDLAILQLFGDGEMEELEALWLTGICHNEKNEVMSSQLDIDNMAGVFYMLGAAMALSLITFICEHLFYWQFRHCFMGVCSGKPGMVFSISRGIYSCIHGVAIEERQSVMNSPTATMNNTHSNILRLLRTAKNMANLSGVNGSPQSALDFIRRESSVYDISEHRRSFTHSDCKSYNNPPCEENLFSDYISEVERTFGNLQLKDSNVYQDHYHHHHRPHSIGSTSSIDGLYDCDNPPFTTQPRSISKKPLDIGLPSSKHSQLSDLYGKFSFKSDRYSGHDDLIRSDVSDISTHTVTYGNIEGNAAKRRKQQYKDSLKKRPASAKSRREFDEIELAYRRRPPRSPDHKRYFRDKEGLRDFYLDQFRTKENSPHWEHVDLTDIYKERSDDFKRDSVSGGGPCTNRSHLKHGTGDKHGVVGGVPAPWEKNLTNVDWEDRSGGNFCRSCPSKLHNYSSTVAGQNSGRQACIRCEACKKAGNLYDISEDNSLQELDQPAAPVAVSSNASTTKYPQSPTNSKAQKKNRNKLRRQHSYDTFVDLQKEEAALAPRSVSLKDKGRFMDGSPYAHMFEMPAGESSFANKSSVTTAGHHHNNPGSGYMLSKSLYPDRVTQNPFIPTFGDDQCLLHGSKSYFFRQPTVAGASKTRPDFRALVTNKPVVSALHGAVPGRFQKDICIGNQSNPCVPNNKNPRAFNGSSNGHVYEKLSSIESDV", "experiment": "TEVC recordings in Xenopus oocytes, allosteric modulator sensitivity", "assay_type": "cell-based, rat (GluN1), mouse (GluN2B)", "experimental": "as §1, §2, §3, §4"}, "[3]": {"target": "T3, GluN1-K178AzF/GluN2B receptors (UniProt P35439+Q01097, K178F)", "T3 construct": "For full-length multimeric membrane-embedded receptors studied in cellulo, as done in the present work; expressed in transfected cells; host or cells: Xenopus laevis oocytes, co-injected with amber suppressor tRNA (Yam) and AzF-RS", "T3 sequence (Q01097 27-1482, other chains not shown)": "as above", "experiment": "TEVC recordings in Xenopus oocytes, modulator sensitivity before and after UV photocrosslinking", "assay_type": "cell-based, rat (GluN1), mouse (GluN2B)", "conditions": "for Izn/Io 0.1 μM: 0.1 μM zinc; for Izn/Io 1 μM: 1 μM zinc; for Izn/Io 10 μM: 10 μM zinc", "experimental": "as §1, §2, §3, §4"}, "[4]": {"target": "T4, GluN1-K178AzF/GluN2B receptors (UniProt P35439+Q01097)", "T4 construct": "For full-length multimeric membrane-embedded receptors studied in cellulo, as done in the present work; expressed in transfected cells; host or cells: Xenopus laevis oocytes, co-injected with amber suppressor tRNA (Yam) and AzF-RS", "experiment": "TEVC recordings in Xenopus oocytes, modulator sensitivity before and after UV photocrosslinking", "assay_type": "cell-based, rat (GluN1), mouse (GluN2B)", "conditions": "read-out: Zn2+ IC50", "experimental": "as §1, §2, §3, §4"}, "[5]": {"target": "T5, GluN1/GluN2A-V217C receptors (Rattus norvegicus, UniProt P35439+Q00959, V217C)", "T5 construct": "For full-length multimeric membrane-embedded receptors studied in cellulo, as done in the present work; expressed in transfected cells; host or cells: Xenopus laevis oocytes", "experiment": "TEVC recordings in Xenopus oocytes, zinc inhibition dose-response", "assay_type": "cell-based", "experimental": "as §1, §2, §3, §4"}}, "note": "“And” between values parts separate entries of the source, which are not always exact repeats. Identical values can stand only once. Like-named read-outs stand apart in the source and are kept apart here."}
{"smiles": "[Zn+2]", "note": "[zinc]", "values": [{"measurement": "Zn2+ Hill slope (nH)", "setting": "[1]", "value": "0.64 ± 0.10 and 0.70 ± 0.03 and 0.77 ± 0.05"}, {"measurement": "Izn/Io 1 nM", "setting": "[1]", "value": "0.90 ± 0.01 and 0.90 ± 0.05 and 0.86 ± 0.08"}, {"measurement": "Izn/Io 1 nM", "setting": "[1]; +GNE (100 µM GNE-3419)", "value": "0.97 ± 0.02"}, {"measurement": "Izn/Io 10 nM", "setting": "[1]", "value": "0.68 ± 0.01 and 0.68 ± 0.04 and 0.68 ± 0.07"}, {"measurement": "Izn/Io 10 nM", "setting": "[1]; +GNE (100 µM GNE-3419)", "value": "0.88 ± 0.05"}, {"measurement": "Izn/Io 50 nM", "setting": "[1]", "value": "0.45 ± 0.02 and 0.45 ± 0.05"}, {"measurement": "Izn/Io 50 nM", "setting": "[1]; +GNE (100 µM GNE-3419)", "value": "0.76 ± 0.08"}, {"measurement": "Izn/Io 500 nM", "setting": "[1]", "value": "0.31 ± 0.02 and 0.33 ± 0.04"}, {"measurement": "Izn/Io 500 nM", "setting": "[1]; +GNE (100 µM GNE-3419)", "value": "0.65 ± 0.07"}, {"measurement": "Izn/Io 1000 nM", "setting": "[1]", "value": "0.30 ± 0.06 and 0.28 ± 0.04 and 0.30 ± 0.03"}, {"measurement": "Izn/Io 1000 nM", "setting": "[1]; +GNE (100 µM GNE-3419)", "value": "0.58 ± 0.02"}, {"measurement": "Zn2+ maximal inhibition", "setting": "[1]; fraction", "value": "0.74 ± 0.05"}, {"measurement": "Zn2+ Hill slope (nH)", "setting": "[1]; in the presence of 100 µM GNE-3419", "value": "0.62 ± 0.17"}, {"measurement": "IC50", "setting": "[1]; read-out: Zn2+ IC50", "value": "12 nM and 15.3 nM and 13 nM"}, {"measurement": "Zn2+ Hill slope (nH)", "setting": "[2]", "value": "1.08 ± 0.04 and 1.20 ± 0.04 and 0.96 ± 0.10"}, {"measurement": "Izn/Io 0.1 μM", "setting": "[2]; 0.1 μM zinc", "value": "0.80 ± 0.02 and 0.87 ± 0.02 and 0.78 ± 0.01"}, {"measurement": "Izn/Io 0.3 μM", "setting": "[2]; 0.3 μM zinc", "value": "0.54 ± 0.03"}, {"measurement": "Izn/Io 1 μM", "setting": "[2]; 1 μM zinc", "value": "0.39 ± 0.005 and 0.46 ± 0.03 and 0.37 ± 0.03"}, {"measurement": "Izn/Io 3 μM", "setting": "[2]; 3 μM zinc", "value": "0.18 ± 0.09"}, {"measurement": "IC50", "setting": "[2]; read-out: Zn2+ IC50", "value": "720 nM and 970 nM and 590 nM"}, {"measurement": "Izn/Io 0.1 μM", "setting": "[3]; +UV", "value": "0.97 ± 0.02"}, {"measurement": "Izn/Io 0.1 μM", "setting": "[3]; -UV", "value": "0.73 ± 0.09"}, {"measurement": "Izn/Io 1 μM", "setting": "[3]; +UV", "value": "0.86 ± 0.03"}, {"measurement": "Izn/Io 1 μM", "setting": "[3]; -UV", "value": "0.33 ± 0.05"}, {"measurement": "Izn/Io 10 μM", "setting": "[3]; +UV", "value": "0.45 ± 0.08"}, {"measurement": "Izn/Io 10 μM", "setting": "[3]; -UV", "value": "0.04 ± 0.01"}, {"measurement": "Zn2+ Hill slope (nH)", "setting": "[3]; after UV", "value": "0.91 ± 0.02"}, {"measurement": "Zn2+ Hill slope (nH)", "setting": "[3]; before UV", "value": "1.02 ± 0.02"}, {"measurement": "increase in zinc IC50 following UV treatment", "setting": "[3]; post-UV vs pre-UV", "value": "~ 15 fold"}, {"measurement": "IC50", "setting": "[4]; after UV", "value": "7960 ± 160", "unit": "nM"}, {"measurement": "IC50", "setting": "[4]; before UV", "value": "540 ± 10", "unit": "nM"}, {"measurement": "Zn2+ Hill slope (nH)", "setting": "[5]", "value": "0.44 ± 0.08"}, {"measurement": "maximal level of zinc inhibition", "setting": "[5]", "value": 40, "unit": "%"}, {"measurement": "Izn/Io 1 nM", "setting": "[5]; 1 nM zinc", "value": "0.86 ± 0.03"}, {"measurement": "Izn/Io 10 nM", "setting": "[5]; 10 nM zinc", "value": "0.78 ± 0.03"}, {"measurement": "Izn/Io 50 nM", "setting": "[5]; 50 nM zinc", "value": "0.70 ± 0.03"}, {"measurement": "Izn/Io 500 nM", "setting": "[5]; 500 nM zinc", "value": "0.65 ± 0.03"}, {"measurement": "Izn/Io 1000 nM", "setting": "[5]; 1000 nM zinc", "value": "0.64 ± 0.04"}, {"measurement": "IC50", "setting": "[5]; read-out: Zn2+ IC50", "value": "4.64 ± 1.78", "unit": "nM"}]}
